Patent US11384115B2, “Nuclear sulfated oxysterol, potent regulator of lipid homeostasis, for therapy of hypercholesterolemia, hypertriglycerides, fatty liver diseases, and atherosclerosis” (Virginia Commonwealth University, priority 2004, dated 2022)

Key:
PPARγ = molecular target: T1, PPARγ (Homo sapiens, UniProt P37231); experiment: Western blot of nuclear PPARγ levels in THP-1 macrophages; format: cell-based; details: for nuclear PPARγ protein levels: THP-1 macrophages, 4 hrs
T1 construct: THP-1 monocytes were differentiated to macrophages by adding 100 nM of phorbol 12-myristate 13-acetate (PMA); endogenous in cells; host or cells: THP-1 monocyte-derived macrophages (human, ATCC)
T1 sequence (P37231 1-505): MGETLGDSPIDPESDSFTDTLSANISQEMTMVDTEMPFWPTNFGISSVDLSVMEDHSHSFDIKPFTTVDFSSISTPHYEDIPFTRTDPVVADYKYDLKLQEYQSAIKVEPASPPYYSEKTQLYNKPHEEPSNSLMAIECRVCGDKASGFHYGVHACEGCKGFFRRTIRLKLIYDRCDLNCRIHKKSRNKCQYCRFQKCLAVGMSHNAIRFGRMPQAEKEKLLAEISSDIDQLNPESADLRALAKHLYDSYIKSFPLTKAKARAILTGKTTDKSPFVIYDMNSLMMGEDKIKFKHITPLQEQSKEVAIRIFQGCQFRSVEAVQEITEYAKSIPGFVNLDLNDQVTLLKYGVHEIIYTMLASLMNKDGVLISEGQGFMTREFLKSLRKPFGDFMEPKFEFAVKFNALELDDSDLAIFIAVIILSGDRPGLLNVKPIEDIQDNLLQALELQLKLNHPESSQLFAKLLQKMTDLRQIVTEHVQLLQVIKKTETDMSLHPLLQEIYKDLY
Experimental: FIGS. 21A and 21B. Effects of 25HC3S and 25HC on PPARγ protein levels in THP-1 macrophages. A, THP-1 macrophages were treated with 25HC3S (top panel) or 25HC (middle panel) at different concentration as indicated for 4 hrs. The nuclear PPARγ levels were analyzed by Western blot. […] Expression levels were normalized to Lamin as shown in the bottom panels. The data represent one typical result out of three experiments.
Human THP-1 monocytes and H441 cells were purchased from the American Type Culture Collection (Manassas, Va.) and maintained according to the supplier's protocols. THP-1 monocytes were differentiated to macrophages by adding 100 nM of phorbol 12-myristate 13-acetate (PMA). When cells reached 90% confluence, oxysterols in DMSO or in ethanol (the final concentration in media was <0.1%) were added as indicated. The cells were harvested at the times as indicated. Nuclear and cytosolic fractions were isolated using NE-PER®, Nuclear and Cytoplasmic Extraction Reagents (Pierce, Rockford, Ill. Western blot analysis of nuclear PPAR and intracellular I B levels
Fifty μg of total cell lysates or nuclear protein extracts, otherwise as indicated, were separated on 10% SDS-PAGE gels and transferred onto a polyvinylidene difluoride membrane as described previously. Membranes were blocked in TBS containing 5% of nonfat dried milk for 1 hr. The specific proteins were determined by incubation with specific antibodies against human PPAR or IκB overnight at 4° C. with shaking. After washing, the membrane was incubated in a 1:3,000 dilution of a secondary antibody (goat anti-rabbit or anti-mouse IgG-HP conjugate; Bio-Rad, Hercules, Calif.) at room temperature for 1 hr in the washing buffer (Tris buffered solution containing 0.5% Tween 20). The protein bands were visualized using Western Lightening Chemiluminescence Reagent (Perkin-Elmer, Waltham, Mass.). The expression levels were normalized to Lamin.

TNFα and IL-1β mRNA = experiment: LPS-induced TNFα, IL-1β and NFκB mRNA by real-time RT-PCR in THP-1 macrophages; format: cell-based, human; details: for LPS-induced IL-1β mRNA levels / LPS-induced TNFα mRNA levels: 25 hours; for LPS-induced IL-1β mRNA levels: FIG. 28A; for LPS-induced TNFα mRNA levels: FIG. 28B
Experimental: FIGS. 28A and B. Addition of 25HC3S suppresses LPS-induced IL-1β (A) and TNFα (B) expression in macrophages. To study the effect of 25HC3S on LPS-induced TNFα and IL-1β expression and release, macrophages were treated with 1 μg/ml of LPS and different concentrations of 25HC3S and 25HC as indicated for 25 hours; mRNA levels of TNFα and IL-1β were determined by real time RT-PCR. The results represent mean SD. […] Both 25HC3S and 25HC repressed LPS-induced TNFα mRNA levels as shown in B.
Total RNA was isolated from THP-1 derived macrophages following treatments for 6 hrs otherwise as indicated using SV Total RNA Isolation Kit (Promega, Wisconsin, Wis.), which includes DNase treatment. Two microgram of total RNA was used for first-strand cDNA synthesis as recommended by manufacturer (Invitrogen, Carlsbad, Calif.). Real-time RT-PCR was performed using SYBR Green as indicator on ABI 7500 Fast Real-Time PCR System (Applied Biosystems, Foster City, Calif.). The final reaction mixture contained 10 ng of cDNA, 100 nM of each primer, 10 μl of 2×SYBR® Green PCR Master Mix (Applied Biosystems, Foster City, Calif.), and RNase-free water to complete the reaction mixture volume to 20 μl. All reactions were performed in triplicate. PCR was carried out for 40 cycles of 95° C. for 15 s and 60° C. for 1 min. The fluorescence was read during the reaction, allowing a continuous monitoring of the amount of PCR product. The data was normalized to internal control GAPDH.
pSilencer2.1-U6 neo siRNA expression vector and negative control for RNAi were purchased from Ambion, Inc. (Austin, Tex.). Three human PPARγ oligonucleotide sequences, […] (siRNA1, SEQ ID NO: 13), […] (siRNA2, SEQ ID NO: 14), and […] (siRNA3, SEQ ID NO: 15), were selected as specific siRNAs to target human PPARγ. Synthetic sense and antisense oligonucleotides were annealed by incubated at 90° C. for 3 min and then at 37° C. for 1 hr. The double stranded oligonucleotides were cloned into the BamH I-Hind III sites of the pSilencer2.1-U6 neo vector according manufacturer's protocol. The control RNA interference (RNAi) sequence was a randomly scrambled and was not found in the mouse, human, or rat genome databases. All of the constructs were confirmed by sequencing. THP-1 macrophages were transfected with a PPARγ siRNA or control RNAi using FugeneHD reagent according to the manufacturer's instructions (Roche Applied Science, Indianapolis, Ind.). After incubation for 4 hrs, the medium was changed with normal medium and compounds were added at appropriate concentrations as indicated. Cells were harvested after 48 hrs following the addition, and PPARγ protein levels were determined using western blot and mRNA levels of inflammatory response factors were measured by real time RT-PCR analysis.

NFκB = experiment: Western blot of nuclear NFκB levels in THP-1 macrophages; format: cell-based, human
Experimental: A, THP-1 macrophages were treated with 25HC3S or 25HC for 24 hrs followed by addition or no addition of TNFα for another 3 hrs. The nuclear NFκB levels were analyzed by Western blot. The data represent one typical result out of three experiments.
Fifty μg of total cell lysates or nuclear protein extracts, otherwise as indicated, were separated on 10% SDS-PAGE gels and transferred onto a polyvinylidene difluoride membrane as described previously [31]. Membranes were blocked in TBS containing 5% of nonfat dried milk for 1 hr. The specific proteins were determined by incubation with specific antibodies against human PPAR or IκB overnight at 4° C. with shaking. After washing, the membrane was incubated in a 1:3,000 dilution of a secondary antibody (goat anti-rabbit or anti-mouse IgG-HP conjugate; Bio-Rad, Hercules, Calif.) at room temperature for 1 hr in the washing buffer (Tris buffered solution containing 0.5% Tween 20). The protein bands were visualized using Western Lightening Chemiluminescence Reagent (Perkin-Elmer, Waltham, Mass.). The expression levels were normalized to Lamin.

Structure (SMILES)	nuclear PPARγ protein levels (PPARγ)	rosiglitazone-increased nuclear PPARγ levels (PPARγ; preincubated with 1 μM of rosiglitazone for 2 hrs, 25HC for 4 hrs)	LPS-induced IL-1β mRNA levels (TNFα and IL-1β mRNA; 1 μg/ml LPS)	LPS-induced TNFα mRNA levels (TNFα and IL-1β mRNA; 1 μg/ml LPS)	increase of LPS-induced IL-1β mRNA levels (TNFα and IL-1β mRNA; macrophages, 1 μg/ml LPS) [fold]	nuclear NFκB levels (NFκB; in the absence of TNFα, 24 hrs)	nuclear NFκB levels (NFκB; in the presence of TNFα)	nuclear PPARγ levels in the presence of the antagonist T0070907 (PPARγ; preincubated with 1 μM of T0070907 for 2 hrs)	LPS-induced TNFα, IL-1β and NFκB expression (TNFα and IL-1β mRNA; 12 μM, 48 hrs, control macrophages)	suppression of IL-1 and TNFα expression in the presence of T0070907 (TNFα and IL-1β mRNA; PPARγ antagonist T0070907)	LPS-induced TNFα, IL-1β and NFκB expression in siRNA-expressed cells (TNFα and IL-1β mRNA; PPARγ knock down macrophages)	suppression of LPS-induced IL-1β mRNA levels (TNFα and IL-1β mRNA; macrophages, 1 μg/ml LPS) [fold]
C[C@H](CCCC(C)(C)O)[C@H]1CC[C@H]2[C@@H]3CC=C4C[C@@H](O)CC[C@]4(C)[C@H]3CC[C@]12C [25HC, 25-hydroxycholesterol, reference compound]	decreased	significantly inhibited	significantly increased	repressed	2	increased	significantly increased					
C[C@H](CCCC(C)(C)O)[C@H]1CC[C@H]2[C@@H]3CC=C4C[C@@H](OS(=O)(=O)O)CC[C@]4(C)[C@H]3CC[C@]12C [25HC3S, 5-cholesten-3β, 25-diol 3-sulphate]	substantially increased		significantly suppressed	repressed		decreased	failed to decrease	failed to increase the nuclear PPARγ levels to its maxima	significantly suppressed	significantly be blunted	failed in suppressing	2
